Reference: PubChem BioAssay AID2060903 (Molecular Pharmacology Branch, DTP, NCI, 2025)

System: 377384-186-R-J1-PDC complex spheroid viability
Assay: Anticancer human tumor 377384-186-R-J1-PDC patient-derived pancreatic carcinoma cell line growth inhibition [RAS]
Settings: for IC50: curve of first compound; for viability, T/C: stronger effect = lower value
Source text: RAS pathway inhibitors in Combinations in Complex Spheroids
A high-throughput screen of multi-cell type tumor spheroids was designed to identify active combinations of RAS pathway inhibitors and targeted small molecules. Complex spheroids include a stromal component modeled by human endothelial cells (HUVEC) and fibroblasts modeled by human mesenchymal stem cells (MSCs). The concentration ranges selected for each drug and investigational agent were based upon clinically achievable concentrations if the clinical Cmax of the agent was known.
Compounds. The drugs and investigational agents: abemaciclib (NSC768073), cobimetinib (NSC768068), divarasib (GDC6063, NSC841802), docetaxel (NSC628503), GDC-1971 (RLY-1971, NSC841576), gemcitabine (NSC613327), inavolisib (NSC800729), ipatasertib (NSC767898), KB-0742 (NSC834161), MRTX-1133 (NSC836407), osimertinib (NSC779217), RMC-4630 (NSC839698), RMC-6236 (NSC851965), RMC-6291 (NSC852671), Ro-3306 (NSC812927), sapanisertib (NSC764658), SN-38 (NSC673596), staurosporine (NSC755774), SY5609 (NSC837396), and tovorafenib (DAY101, NSC766906), were obtained from the National Cancer Institute (NCI) Developmental Therapeutics Program Chemical Repository. The FDA-approved anticancer drug set is available from the NCI Developmental Therapeutics Program. […] The stock solutions were prepared in dimethyl sulfoxide (DMSO, Sigma-Aldrich, St. Louis, MO, cat. D2650) at 800-fold the tested concentration and stored at -70 degrees C prior to their use. All drugs and investigational agents were tested over a range starting from a high concentration at or near the clinical Cmax and decreasing in half-log increments. If the clinical Cmax for an agent had not been determined, the highest concentration tested was 10 microM.
Cell Culture. All cells were maintained in an incubator at 37 degrees C and 5% CO2 with 95% humidity. The PDC lines were cultured according to standard operating procedures established by the NCI PDMR. All PDCs were thawed and cultured in Matrigel-coated flasks prepared with a working solution of 1X Ham's F-12 nutrient mix, without supplementation (Invitrogen, Waltham, MA, cat. 11765054), 100 U/mL penicillin-streptomycin (Invitrogen, cat. 15140122), and 2.5% Matrigel (Corning Inc., Corning, NY, cat. 354248) for the first three passages. The 362531-283-R-J2-PDC and 782815-120-R-J1-PDC lines were cultured in 6C/Colon 1B media, which includes advanced DMEM/F-12 (Thermo Fisher Scientific, cat. 12634028), 10 mM HEPES (Thermo Fisher Scientific, cat. 15630080), 1X GlutaMAX supplement (Thermo Fisher Scientific, cat. 35050061), 0.1 mg/mL primocin (InvivoGen, San Diego, CA, cat. ant-pm-2), 10% defined fetal bovine serum, heat inactivated (HyClone Laboratories Inc., Logan, UT, cat. SH30070.03HI), 50% L-WRN conditioned media (ATCC, cat. CRL-3276), 1.25 mM N-Acetyl-L-cysteine (Sigma-Aldrich, cat. A9165), 10 mM nicotinamide (Sigma-Aldrich, cat. N0636), 1X B-27 supplement (Thermo Fisher Scientific, cat. 17504044), 1X N-2 supplement (Thermo Fisher Scientific, cat. 17502048), 50 ng/mL human EGF (Thermo Fisher Scientific, cat. PHG0311), and 10 microM Y-27632 dihydrochloride (Tocris Bioscience, cat. 1254). The K12877-001-R-J1-PDC line was cultured in 6I media, which includes all 6C/Colon 1B media plus 10 ng/mL human FGF-10 (PeproTech, cat. 100-26), 1 ng/mL human FGF-2 (PeproTech, cat. 100-18B), 1 µM prostaglandin E2 (Tocris Bioscience, cat. 2296), […] hydrocortisone (Sigma-Aldrich, cat. H4001), and […] bovine insulin (Sigma-Aldrich, cat. I6634). The K86415-001-R-J1-PDC line was cultured in 6D media, which includes all 6C/Colon 1B media components minus the L-WRN conditioned media. The 485176-168-R4-J1-PDC was cultured in PANC media, which includes all 6C/Colon 1B media plus 100 ng/mL human FGF-10 (PeproTech, cat. 100-26), 500 nM SB-431542 (Selleckchem, cat. S1067), and 10 nM gastrin (Tocris Bioscience, cat. 3006). […]

[1] = second compound 0.0316 µM, first compound 0.0316 µM
[2] = second compound 0.0316 µM, first compound 0.1 µM
[3] = second compound 0.0316 µM, first compound 0.316 µM
[4] = second compound 0.0316 µM, first compound 1 µM
[5] = second compound 0.0316 µM, first compound 3.16 µM
[6] = second compound 0.0316 µM, first compound 10 µM
[7] = second compound 0.1 µM, first compound 0.0316 µM
[8] = second compound 0.1 µM, first compound 0.1 µM
[9] = second compound 0.1 µM, first compound 0.316 µM
[10] = second compound 0.1 µM, first compound 1 µM
[11] = second compound 0.1 µM, first compound 3.16 µM
[12] = second compound 0.1 µM, first compound 10 µM
[13] = second compound 0.316 µM, first compound 0.0316 µM
[14] = second compound 0.316 µM, first compound 0.1 µM
[15] = second compound 0.316 µM, first compound 0.316 µM
[16] = second compound 0.316 µM, first compound 1 µM
[17] = second compound 0.316 µM, first compound 3.16 µM
[18] = second compound 0.316 µM, first compound 10 µM
[19] = second compound 1 µM, first compound 0.0316 µM
[20] = second compound 1 µM, first compound 0.1 µM
[21] = second compound 1 µM, first compound 0.316 µM
[22] = second compound 1 µM, first compound 1 µM
[23] = second compound 1 µM, first compound 3.16 µM
[24] = second compound 1 µM, first compound 10 µM
[25] = second compound 3.16 µM, first compound 0.0316 µM
[26] = second compound 3.16 µM, first compound 0.1 µM
[27] = second compound 3.16 µM, first compound 0.316 µM
[28] = second compound 3.16 µM, first compound 1 µM
[29] = second compound 3.16 µM, first compound 3.16 µM
[30] = second compound 3.16 µM, first compound 10 µM
[31] = second compound 10 µM, first compound 0.0316 µM
[32] = second compound 10 µM, first compound 0.1 µM
[33] = second compound 10 µM, first compound 0.316 µM
[34] = second compound 10 µM, first compound 1 µM
[35] = second compound 10 µM, first compound 3.16 µM
[36] = second compound 10 µM, first compound 10 µM
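Further: spheroids exposed to compounds for seven days before readout.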

In the case of `Cc1nc(N2CCC3(CC2)COC(C)C3N)c(CO)nc1Sc1ccnc(N)c1Cl` (stereo unspecified) + C#Cc1c(F)ccc2cc(O)cc(-c3ncc4c(N5CC6CCC(C5)N6)nc(OCC56CCCN5CC(F)C6)nc4c3F)c12, the IC50 (second compound 0.0316 µM) is reported as under 0.0316 µM, the IC50 (second compound 0.1 µM) is reported as under 0.0316 µM and the IC50 (second compound 0.316 µM) is reported as under 0.0316 µM. The IC50 (second compound 1 µM) was under 0.0316 µM, the IC50 (second compound 3.16 µM) was under 0.0316 µM and the IC50 (second compound 10 µM) was under 0.0316 µM. For the same compound, the viability, T/C [1] was 12.6%, the viability, T/C [2] was 5.6% and the viability, T/C [3] was 3.15%. The viability, T/C [4] was 1.95%, the viability, T/C [5] was 1.57% and the viability, T/C [6] was 0.92%. It also gave a viability, T/C [7] of 5.2%, a viability, T/C [8] of 3.07% and a viability, T/C [9] of 1.59%. It also gave a viability, T/C [10] of 0.92%, a viability, T/C [11] of 0.97% and a viability, T/C [12] of 0.63%. The viability, T/C [13] was 2.68%, the viability, T/C [14] was 1.49% and the viability, T/C [15] was 0.84%. The viability, T/C [16] was 0.98%, the viability, T/C [17] was 0.78% and the viability, T/C [18] was 0.67%. For the same compound, the viability, T/C [19] was 1.74%, the viability, T/C [20] was 1.54% and the viability, T/C [21] was 1.31%. The viability, T/C [22] was 0.99%, the viability, T/C [23] was 0.81% and the viability, T/C [24] was 0.51%. For the same compound, the viability, T/C [25] was 1.99%, the viability, T/C [26] was 1.51% and the viability, T/C [27] was 1.34%. The viability, T/C [28] was 0.77%, the viability, T/C [29] was 0.8% and the viability, T/C [30] was 0.33%. For the same compound, the viability, T/C [31] was 1.85%, the viability, T/C [32] was 0.91% and the viability, T/C [33] was 0.69%. The viability, T/C [34] was 0.44%, the viability, T/C [35] was 0.38% and the viability, T/C [36] was 0.14%.

Work on `NC1c2ccccc2OC12CCN(c1cnc3c(N4CCCc5ncccc54)n[nH]c3n1)CC2` (stereo unspecified) + C#Cc1c(F)ccc2cc(O)cc(-c3ncc4c(N5CC6CCC(C5)N6)nc(OCC56CCCN5CC(F)C6)nc4c3F)c12 yielded an IC50 (second compound 0.0316 µM) of under 0.0316 µM, an IC50 (second compound 0.1 µM) of under 0.0316 µM and an IC50 (second compound 0.316 µM) of under 0.0316 µM. The IC50 (second compound 1 µM) was under 0.0316 µM, the IC50 (second compound 3.16 µM) was under 0.0316 µM and the IC50 (second compound 10 µM) was under 0.0316 µM. The viability, T/C [1] was 2.52%, the viability, T/C [2] was 1.69% and the viability, T/C [3] was 1.2%. It also gave a viability, T/C [4] of 0.72%, a viability, T/C [5] of 0.33% and a viability, T/C [6] of 0.32%. It also gave a viability, T/C [7] of 1.81%, a viability, T/C [8] of 1.39% and a viability, T/C [9] of 0.82%. The viability, T/C [10] was 0.62%, the viability, T/C [11] was 0.38% and the viability, T/C [12] was 0.25%. The viability, T/C [13] was 1.2%, the viability, T/C [14] was 0.66% and the viability, T/C [15] was 0.72%. For the same compound, the viability, T/C [16] was 0.67%, the viability, T/C [17] was 0.35% and the viability, T/C [18] was 0.35%. The viability, T/C [19] was 1.27%, the viability, T/C [20] was 1.46% and the viability, T/C [21] was 0.57%. For the same compound, the viability, T/C [22] was 0.5%, the viability, T/C [23] was 0.21% and the viability, T/C [24] was 0.22%. For the same compound, the viability, T/C [25] was 0.86%, the viability, T/C [26] was 1.11% and the viability, T/C [27] was 0.52%. It also gave a viability, T/C [28] of 0.29%, a viability, T/C [29] of 0.29% and a viability, T/C [30] of 0.34%. For the same compound, the viability, T/C [31] was 0.92%, the viability, T/C [32] was 0.33% and the viability, T/C [33] was 0.31%. It also gave a viability, T/C [34] of 0.14%, a viability, T/C [35] of 0.19% and a viability, T/C [36] of 0.12%.

Work on `Nc1ccn(C2OC(CO)C(O)C2(F)F)c(=O)n1` (stereo unspecified) + C#Cc1c(F)ccc2cc(O)cc(-c3ncc4c(N5CC6CCC(C5)N6)nc(OCC56CCCN5CC(F)C6)nc4c3F)c12 yielded an IC50 (second compound 0.0316 µM) of under 0.00316 µM, an IC50 (second compound 0.1 µM) of under 0.00316 µM and an IC50 (second compound 0.316 µM) of under 0.00316 µM. The IC50 (second compound 1 µM) was under 0.00316 µM, the IC50 (second compound 3.16 µM) was under 0.00316 µM and the IC50 (second compound 10 µM) was under 0.00316 µM. It also gave a viability, T/C (second compound 0.0316 µM, first compound 0.00316 µM) of 18.7%, a viability, T/C (second compound 0.0316 µM, first compound 0.01 µM) of 10.9% and a viability, T/C [1] of 5.1%. The viability, T/C [2] was 2.32%, the viability, T/C [3] was 1.53% and the viability, T/C [4] was 1.48%. The viability, T/C (second compound 0.1 µM, first compound 0.00316 µM) was 10.6%, the viability, T/C (second compound 0.1 µM, first compound 0.01 µM) was 5.99% and the viability, T/C [7] was 3.67%. For the same compound, the viability, T/C [8] was 2.25%, the viability, T/C [9] was 1.8% and the viability, T/C [10] was 1.59%. The viability, T/C (second compound 0.316 µM, first compound 0.00316 µM) was 3.96%, the viability, T/C (second compound 0.316 µM, first compound 0.01 µM) was 3.01% and the viability, T/C [13] was 2.14%. The viability, T/C [14] was 1.91%, the viability, T/C [15] was 1.53% and the viability, T/C [16] was 1.47%. The viability, T/C (second compound 1 µM, first compound 0.00316 µM) was 2.36%, the viability, T/C (second compound 1 µM, first compound 0.01 µM) was 2.41% and the viability, T/C [19] was 1.7%. The viability, T/C [20] was 1.46%, the viability, T/C [21] was 1.44% and the viability, T/C [22] was 1.36%. It also gave a viability, T/C (second compound 3.16 µM, first compound 0.00316 µM) of 2.1%, a viability, T/C (second compound 3.16 µM, first compound 0.01 µM) of 1.41% and a viability, T/C [25] of 1.83%. For the same compound, the viability, T/C [26] was 1.8%, the viability, T/C [27] was 1.48% and the viability, T/C [28] was 1.3%. It also gave a viability, T/C (second compound 10 µM, first compound 0.00316 µM) of 1.37%, a viability, T/C (second compound 10 µM, first compound 0.01 µM) of 1.08% and a viability, T/C [31] of 1.21%. For the same compound, the viability, T/C [32] was 1.3%, the viability, T/C [33] was 1.62% and the viability, T/C [34] was 1.15%.
